Source: patent US20240293380A1, “PROTEASE INHIBITORS AND METHODS OF USE” (priority 2021, published 2024)

molecular target: SARS-CoV-2 3CLpro (Severe acute respiratory syndrome coronavirus 2 (2019-nCoV) (SARS-CoV-2), UniProt P0DTD1); type: biochemical

First: O=C(Cc1cncc2ccccc12)N(Cc1cc(F)ccc1F)c1ccc(-c2c[nH]cn2)cc1 [Compound 23]
Second: O=C(Cc1cncc2ccccc12)N(Cc1cc(Cl)ccc1F)c1ccc(-c2c[nH]cn2)cc1 [Compound 15]
The IC50 of the first is 1.9-fold lower: 159 nM for the first, 308 nM for the second.

First: O=C(Cc1noc2ccccc12)N(Cc1cc(F)cc(Cl)c1)c1ccc(-c2c[nH]cn2)cc1 [Compound 49]
Second: O=C(Cc1cccnc1)N(Cc1cc(F)cc(Cl)c1)c1ccc(-c2c[nH]cn2)cc1 [Compound 43]
The IC50 of the first is 4.5-fold higher: 839 nM for the first, 188 nM for the second.

`O=C(Cc1cncc(C2CC2)c1)N(Cc1cc(F)cc(F)c1)c1ccc(-c2c[nH]cn2)cc1` [Compound 67] and `O=C(Cc1cncc(C2CC2)c1)N(Cc1cc(F)cc(Cl)c1)c1ccc(-c2c[nH]cn2)cc1` [Compound 71] are within 1.5-fold of each other in IC50: 161 nM for the first, 115 nM for the second.

First: O=C(Cc1cnccc1C(F)(F)F)N(Cc1cc(F)cc(Cl)c1)c1ccc(-c2c[nH]cn2)cc1 [Compound 75]
Second: Cc1ccncc1CC(=O)N(Cc1cc(F)cc(Cl)c1)c1ccc(-c2c[nH]cn2)cc1 [Compound 77]
The IC50 of the first is 7.4-fold higher: 1000 nM for the first, 136 nM for the second. The second is the more potent here.

`O=C(Cc1nncc2ccccc12)N(Cc1cc(F)cc(Cl)c1)c1ccc(C2CNC2)cc1` [Compound 82, N-(4-(azetidin-3-yl)phenyl)-N-(3-chloro-5-fluorobenzyl)-2-(phthalazin-1-yl)acetamide] and `O=C(Cc1cncc2ccccc12)N(Cc1cc(F)cc(Cl)c1)c1ccc(C2CNC2)cc1` [Compound 72] are within 1.5-fold of each other in IC50: 70 nM for the first, 56 nM for the second.

`O=C(Cc1cnccn1)N(Cc1cccc(Cl)c1)c1ccc(-c2cn[nH]c2)cc1` [Compound 5, N-[(3-chlorophenyl)methyl]-2-pyrazin-2-yl-N-[4-(1H-pyrazol-4-yl)phenyl]acetamide] and `O=C(Cc1cccnn1)N(Cc1cccc(Cl)c1)c1ccc(-c2cn[nH]c2)cc1` [Compound 6, N-[(3-chlorophenyl)methyl]-N-[4-(1H-pyrazol-4-yl)phenyl]-2-pyridazin-3-yl-acetamide] are within 1.5-fold of each other in IC50: 5220 nM for the first, 5000 nM for the second.

Compared with `CC(C)(C)NC(=O)C(c1cc(F)cc(F)c1)N(C(=O)Cc1cncc2ccccc12)c1ccc(C2=CCNC2)cc1` (centres unmarked) [Compound 63], `CC(C)(C)NC(=O)C(c1cc(F)cc(F)c1)N(C(=O)Cc1cncc2ccccc12)c1ccc(-c2c[nH]cn2)cc1` (centres unmarked) [Compound 64] is 4.5-fold lower in IC50: 1030 nM for the first, 231 nM for the second. The second is the more potent here.

First: O=C(Cc1cccnc1)N(Cc1cccc(Cl)c1)c1ccc(-c2c[nH]cn2)cc1 [Compound 44]
Second: O=C(Cc1cncc2ccccc12)N(Cc1cncc(Cl)c1)c1ccc(-c2c[nH]cn2)cc1 [Compound 17]
The IC50 of the first is 4.1-fold higher: 414 nM for the first, 101 nM for the second.

Compared with `O=C(Cc1nnc2ccccn12)N(Cc1cccc(Cl)c1)c1ccc(-c2cn[nH]c2)cc1` [Compound 1, N-[(3-chlorophenyl)methyl]-N-[4-(1H-pyrazol-4-yl)phenyl]-2-([1,2,4]triazolo[4,3-a]pyridin-3-yl)acetamide], `O=C(Cc1nnc2ccc(F)cn12)N(Cc1cccc(Cl)c1)c1ccc(-c2cn[nH]c2)cc1` [Compound 3, N-[(3-chlorophenyl)methyl]-2-(6-fluoro-[1,2,4]triazolo[4,3-a]pyridin-3-yl)-N-[4-(1H-pyrazol-4-yl)phenyl]acetamide] is 9.2-fold higher in IC50: 365 nM for the first, 3360 nM for the second.

`O=C(Cc1cccnn1)N(Cc1cc(F)cc(Cl)c1)c1ccc(-c2c[nH]cn2)cc1` [Compound 52] and `O=C(Cc1cccnn1)N(Cc1cc(F)cc(F)c1)c1ccc(-c2c[nH]cn2)cc1` [Compound 31] are within 1.5-fold of each other in IC50: 389 nM for the first, 506 nM for the second.

Going from `O=C(Cc1cncc2ccccc12)N(Cc1cncc(F)c1)c1ccc(C2CNC2)cc1` [Compound 60] to `O=C(Cc1cncc2ccccc12)N(Cc1cncc(F)c1)c1ccc(-c2c[nH]cn2)cc1` [Compound 40], the IC50 falls from 193 nM to 53 nM (3.6-fold). The second is the more potent here.

Compared with `O=C(Cc1nnc2ccccn12)N(Cc1cc(F)cc(Cl)c1)c1ccc(-c2c[nH]cn2)cc1` [Compound 9, N-[(3-chloro-5-fluoro-phenyl)methyl]-N-[4-(1H-imidazol-4-yl)phenyl]-2-([1,2,4]triazolo[4,3-a]pyridin-3-yl)acetamide], `O=C(Cc1nnc2ccccn12)N(Cc1cc(F)cc(F)c1)c1ccc(-c2c[nH]cn2)cc1` [Compound 27] is 2.9-fold higher in IC50: 71 nM for the first, 209 nM for the second.

Going from `O=C(Cc1cncnc1)N(Cc1cc(F)cc(Cl)c1)c1ccc(-c2c[nH]cn2)cc1` [Compound 48] to `O=C(Cc1cncc(F)c1)N(Cc1cc(F)cc(Cl)c1)c1ccc(-c2c[nH]cn2)cc1` [Compound 69], the IC50 falls from 542 nM to 220 nM (2.5-fold).

`COc1cc(F)cc(CN(C(=O)Cc2cncc3ccccc23)c2ccc(-c3c[nH]cn3)cc2)c1` [Compound 54] and `COc1cc(Cl)cc(CN(C(=O)Cc2cncc3ccccc23)c2ccc(-c3c[nH]cn3)cc2)c1` [Compound 19] are within 1.5-fold of each other in IC50: 90 nM for the first, 100 nM for the second.

`COc1ccncc1CC(=O)N(Cc1cc(F)cc(Cl)c1)c1ccc(-c2c[nH]cn2)cc1` [Compound 78] and `O=C(Cc1cnccc1Cl)N(Cc1cc(F)cc(Cl)c1)c1ccc(-c2c[nH]cn2)cc1` [Compound 76] are within 1.5-fold of each other in IC50: 222 nM for the first, 311 nM for the second.

Going from `O=C(Cc1nnc2ccccn12)N(Cc1cccc(F)c1F)c1ccc(-c2c[nH]cn2)cc1` [Compound 24] to `O=C(Cc1nnc2ccccn12)N(Cc1cc(F)ccc1F)c1ccc(-c2c[nH]cn2)cc1` [Compound 22], the IC50 falls from 1300 nM to 786 nM (1.7-fold). The second is the more potent here.

First: O=C(Cc1cncc2ccccc12)N(Cc1cccc(Cl)c1)c1ccc(-c2cn[nH]c2)cc1 [Compound 2, N-[(3-chlorophenyl)methyl]-2-(4-isoquinolyl)-N-[4-(1H-pyrazol-4-yl)phenyl]acetamide]
Second: O=C(Cc1cncc2ccccc12)N(Cc1cccc(F)c1)c1ccc(-c2c[nH]cn2)cc1 [Compound 26]
The IC50 of the first is 12-fold lower: 30 nM for the first, 351 nM for the second. The first is the more potent here.

`O=C(Cc1cncc2ccccc12)N(Cc1cc(F)cc(Cl)c1)c1ccc(-c2c[nH]cn2)cn1` [Compound 29] and `O=C(Cc1cncc2ccccc12)N(Cc1cc(F)cc(F)c1)c1ccc(-c2c[nH]cn2)cc1` [Compound 28] are within 1.5-fold of each other in IC50: 40 nM for the first, 53 nM for the second.

`Cc1cncc(CC(=O)N(Cc2cc(F)cc(Cl)c2)c2ccc(C3CNC3)cc2)c1` [Compound 80] and `Cc1cncc(CC(=O)N(Cc2cc(F)cc(Cl)c2)c2ccc(-c3c[nH]cn3)cc2)c1` [Compound 70] are within 1.5-fold of each other in IC50: 110 nM for the first, 84 nM for the second.

Going from `CC(C)CN(C(=O)Cc1nnc2ccccn12)c1ccc(-c2c[nH]cn2)cc1` [Compound 46] to `O=C(Cc1nnc2ccccn12)N(Cc1cccc(F)c1)c1ccc(-c2c[nH]cn2)cc1` [Compound 47], the IC50 falls from 8100 nM to 621 nM (13-fold). The second is the more potent here.

Compared with `O=C(Cc1cncc2ccccc12)N(Cc1cccc(Cl)c1F)c1ccc(-c2c[nH]cn2)cc1` [Compound 16], `O=C(Cc1cncc2ccccc12)N(Cc1ccc(Cl)c(F)c1)c1ccc(-c2c[nH]cn2)cc1` [Compound 58] is 2.9-fold higher in IC50: 370 nM for the first, 1090 nM for the second. The first is the more potent here.

Compared with `O=C(Cc1cncc2ccccc12)N(Cc1cc(F)cc(Cl)c1)c1ccc(C2=CCNC2)cc1` [Compound 57], `O=C(Cc1cncc2ccccc12)N(Cc1cc(F)cc(F)c1)c1ccc(C2=CCNC2)cc1` [Compound 56] is 1.7-fold higher in IC50: 81 nM for the first, 139 nM for the second.

Compared with `CC(C)(C)CN(C(=O)Cc1cncc2ccccc12)c1ccc(-c2c[nH]cn2)cc1` [Compound 45], `COc1ccc(F)cc1CN(C(=O)Cc1cncc2ccccc12)c1ccc(-c2c[nH]cn2)cc1` [Compound 53] is 2-fold lower in IC50: 356 nM for the first, 179 nM for the second.

Going from `Cc1ccc2nnc(CC(=O)N(Cc3cc(F)cc(Cl)c3)c3ccc(-c4c[nH]cn4)cc3)n2n1` [Compound 42] to `O=C(Cc1cnc2ccccn12)N(Cc1cc(F)cc(Cl)c1)c1ccc(-c2c[nH]cn2)cc1` [Compound 11, N-[(3-chloro-5-fluoro-phenyl)methyl]-2-imidazo[1,2-a]pyridin-3-yl-N-[4-(1H-imidazol-4-yl)phenyl]acetamide], the IC50 falls from 250 nM to 65 nM (3.8-fold). The second is the more potent here.

`O=C(Cc1cncc2ccccc12)N(Cc1cc(F)cc(OC(F)(F)F)c1)c1ccc(-c2c[nH]cn2)cc1` [Compound 61] and `O=C(Cc1cncc2ccccc12)N(Cc1cncc(C(F)(F)F)c1)c1ccc(-c2c[nH]cn2)cc1` [Compound 39] are within 1.5-fold of each other in IC50: 113 nM for the first, 82 nM for the second.

Compared with `C[C@H](c1cc(F)cc(Cl)c1)N(C(=O)Cc1nnc2ccccn12)c1ccc(-c2c[nH]cn2)cc1` [Compound 13], `C[C@H](c1cc(F)cc(Cl)c1)N(C(=O)Cc1cncc2ccccc12)c1ccc(-c2c[nH]cn2)cc1` [Compound 14] is 7.7-fold lower in IC50: 587 nM for the first, 76 nM for the second.

First: O=C1CN(c2ccc(N(Cc3cc(F)cc(F)c3)C(=O)Cc3cncc4ccccc34)cc2)CCN1 [Compound 36]
Second: N#Cc1ccc(N(Cc2cc(F)cc(F)c2)C(=O)Cc2cncc3ccccc23)cc1 [Compound 38]
The IC50 of the first is 3.4-fold lower: 370 nM for the first, 1250 nM for the second. The first is the more potent here.

First: O=C1Nc2ccccc2C1CC(=O)N(Cc1cc(F)cc(Cl)c1)c1ccc(-c2c[nH]cn2)cc1 (centres unmarked) [Compound 59]
Second: O=C1NC(CC(=O)N(Cc2cc(F)cc(Cl)c2)c2ccc(-c3c[nH]cn3)cc2)c2ccccc21 (centres unmarked) [Compound 50]
The IC50 of the first is 4.9-fold lower: 6240 nM for the first, 30800 nM for the second.

Compared with `CC(c1cc(F)cc(F)c1)N(C(=O)Cc1cncc2ccccc12)c1ccc(-c2c[nH]cn2)cc1` (centres unmarked) [Compound 30], `NCc1ccc(N(Cc2cc(F)cc(F)c2)C(=O)Cc2cncc3ccccc23)cc1` [Compound 74] is 1.5-fold lower in IC50: 114 nM for the first, 76 nM for the second. The second is the more potent here.

Going from `NC(=O)c1ccc(N(Cc2cc(F)cc(F)c2)C(=O)Cc2cncc3ccccc23)cc1` [Compound 51] to `O=C(Cc1cncc(Br)c1)N(Cc1cc(F)cc(F)c1)c1ccc(-c2c[nH]cn2)cc1` [Compound 65], the IC50 rises from 100 nM to 187 nM (1.9-fold). The first is the more potent here.

`O=C(Cc1cnc2ccccn12)N(Cc1cccc(Cl)c1)c1ccc(-c2cn[nH]c2)cc1` [Compound 4, N-[(3-chlorophenyl)methyl]-2-imidazo[1,2-a]pyridin-3-yl-N-[4-(1H-pyrazol-4-yl)phenyl]acetamide] and `O=C(Cc1cncc(F)c1)N(Cc1cncc(F)c1)c1ccc(-c2c[nH]cn2)cc1` [Compound 81] are within 1.5-fold of each other in IC50: 1150 nM for the first, 1310 nM for the second.

Compound `O=C(Cc1cncc(F)c1)N(Cc1cncc(F)c1)c1ccc(C2CNC2)cc1` [Compound 83] has an IC50 of 5220 nM.

In the case of `O=C(Cc1nnc(-c2ccccc2)o1)N(Cc1cccc(Cl)c1)c1ccc(-c2cn[nH]c2)cc1` [Compound 7, N-[(3-chlorophenyl)methyl]-2-(5-phenyl-1,3,4-oxadiazol-2-yl)-N-[4-(1H-pyrazol-4-yl)phenyl]acetamide], the “SARS-CoV-2 IC50 (nM)” value is reported as “Inactive”.
In the case of `O=C(Cc1nnc(-c2ccccc2)s1)N(Cc1cccc(Cl)c1)c1ccc(-c2cn[nH]c2)cc1` [Compound 8, N-[(3-chlorophenyl)methyl]-2-(5-phenyl-1,3,4-thiadiazol-2-yl)-N-[4-(1H-pyrazol-4-yl)phenyl]acetamide], the “SARS-CoV-2 IC50 (nM)” value is reported as “Inactive”.
